Data taken from patent US11149023B2, “Substituted triazole derivatives and uses thereof” (Bayer Pharma Aktiengesellschaft, priority 2017, dated 2021).

Legend:
[1] = target: human V2 receptor (Homo sapiens (Human), UniProt P30518); test: Cellular in vitro assay for determining vasopressin receptor activity (V2, CRE-luciferase); assay type: cell-based; details: CHO cell line transfected with human V2 receptor; [Arg8]-vasopressin at EC50 concentration; read-out: IC50 hV2
Method: (§1) B-1. Cellular In Vitro Assay for Determining Vasopressin Receptor Activity
(§2) The identification of agonists and antagonists of the V1a and V2 vasopressin receptors from humans, rats and dogs as well as the quantification of the activity of the compounds of the invention is carried out using recombinant cell lines. These cell lines originally derive from a hamster's ovary epithelial cell (Chinese Hamster Ovary, CHO K1, ATCC: American Type Culture Collection, Manassas, Va. 20108, USA). The test cell lines constitutively express the human, rat or dog V1a or V2 receptors. In case of the Gαq-coupled V1a receptors, cells are also stably transfected with a modified form of the calcium-sensitive photoproteins aequorin (human and rat V1a) or obe-lin (dog V1a), which, after reconstitution with the cofactor coelenterazine, emit light when there are increases in free calcium concentrations [Rizzuto R, Simpson A W, Brini M, Pozzan T, Nature 358, 325-327 (1992); Illarionov B A, Bondar V S, Illarionova V A, Vysotski E S, Gene 153 (2), 273-274 (1995)]. The resulting vasopressin receptor cells react to stimulation of the recombinantly expressed Via receptors by intracellular release of calcium ions, which can be quantified by the resulting photoprotein luminescence. The Gs-coupled V2 receptors are stably transfected into cell lines expressing the gene for firefly luciferase under control of a CRE-responsible promoter. Activation of V2 receptors induces the activation of the CRE-responsive promoter via cAMP increase, thereby inducing the expression of firefly luciferase. The light emitted by photoproteins of V1a cell lines as well as the light emitted by firefly luciferase of V2 cell lines corresponds to the activation or inhibition of the respective vasopressin receptor. The bioluminescence of the cell lines is detected using a suitable luminometer [Milligan G, Marshall F, Rees S, Trends in Pharmacological Sciences 17, 235-237 (1996)].
Vasopressin V2 Receptor Cell Lines:
On the day before the assay, the cells are plated out in culture medium (DMEM/F12, 2% FCS, 2 mM glutamine, 10 mM HEPES) in 384-well microtiter plates and kept in a cell incubator (96% humidity, 5% v/v CO2, 37° C.). On the day of the assay, test compounds in various concentrations and the agonist [Arg^8]-vasopressin at EC50 concentration are added together to the wells, and plates are incubated for 3 hours in a cell incubator. Upon addition of the cell lysis reagent Triton™ and the substrate luciferin, luminescence of firefly luciferase is measured in a luminometer.
(§3) Table 1A below lists individual IC50 values for the compounds of the invention (including racemic mixtures as well as separated enantiomers) that were obtained from cell lines transfected with the human Via or V2 receptor: […]

[2] = target: human V1a receptor (Homo sapiens (Human), UniProt P37288); test: Cellular in vitro assay for determining vasopressin receptor activity (V1a, aequorin luminescence); assay type: cell-based; details: for IC50: CHO cell line transfected with human V1a receptor, [Arg8]-vasopressin at EC50 concentration, read-out: IC50 hV1a; for ratio IC50 hV2/hV1a: selectivity, IC50 hV2 divided by IC50 hV1a
Chain of human V1a receptor (P37288 whole entry): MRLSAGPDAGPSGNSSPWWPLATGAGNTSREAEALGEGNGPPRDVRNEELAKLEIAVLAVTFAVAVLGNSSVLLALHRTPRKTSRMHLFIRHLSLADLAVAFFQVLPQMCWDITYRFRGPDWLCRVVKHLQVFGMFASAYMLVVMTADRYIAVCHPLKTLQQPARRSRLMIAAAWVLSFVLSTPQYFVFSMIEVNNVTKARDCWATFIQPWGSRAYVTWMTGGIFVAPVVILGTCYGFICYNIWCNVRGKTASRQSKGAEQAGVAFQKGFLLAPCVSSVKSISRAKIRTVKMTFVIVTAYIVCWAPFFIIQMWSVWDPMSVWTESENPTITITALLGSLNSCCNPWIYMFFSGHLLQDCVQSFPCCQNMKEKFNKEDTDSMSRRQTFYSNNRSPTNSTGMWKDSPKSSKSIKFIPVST
Method: as §1, §2
Vasopressin V1a Receptor Cell Lines:
On the day before the assay, the cells are plated out in culture medium (DMEM/F12, 2% FCS, 2 mM glutamine, 10 mM HEPES, 5 μg/ml coelenterazine) in 384-well microtiter plates and kept in a cell incubator (96% humidity, 5% v/v CO2, 37° C.). On the day of the assay, test compounds in various concentrations are placed for 10 minutes in the wells of the microtiter plate before the agonist [Arg^8]-vasopressin at EC50 concentration is added. The resulting light signal is measured immediately in a luminometer.
as §3

Chain of human V2 receptor (P30518 whole entry): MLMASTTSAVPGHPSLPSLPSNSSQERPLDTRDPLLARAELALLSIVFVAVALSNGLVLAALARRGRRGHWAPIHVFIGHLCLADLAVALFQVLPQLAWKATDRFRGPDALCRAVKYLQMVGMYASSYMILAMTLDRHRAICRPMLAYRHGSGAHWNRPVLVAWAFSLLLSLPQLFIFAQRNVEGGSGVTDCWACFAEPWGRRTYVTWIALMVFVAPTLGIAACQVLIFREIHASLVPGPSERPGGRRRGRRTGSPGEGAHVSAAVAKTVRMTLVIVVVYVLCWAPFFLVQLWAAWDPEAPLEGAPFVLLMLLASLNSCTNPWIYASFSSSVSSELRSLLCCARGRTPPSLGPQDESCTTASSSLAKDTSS

IC50 [1] [nM] | IC50 [2] [nM] | ratio IC50 hV2/hV1a [2] | Compound
595 | 10.6 | 56.4 | N#CCC(=O)NC(Cn1c(-c2ccc(Cl)cc2)nn(Cc2ncn(-c3ncccc3Cl)n2)c1=O)C(F)(F)F (racemic) [Example 5, N-{3-[3-(4-Chlorophenyl)-1-{[1-(3-chloropyridin-2-yl)-1H-1,2,4-triazol-3-yl]methyl}-5-oxo-1,5-dihydro-4H-1,2,4-triazol-4-yl]-1,1,1-trifluoropropan-2-yl}-2-cyanoacetamide]
630 | 5.65 | 111.5 | COCC(=O)NC(Cn1c(-c2ccc(Cl)cc2)nn(Cc2ncn(-c3ncccc3Cl)n2)c1=O)C(F)(F)F (racemic) [Example 6, N-{3-[3-(4-Chlorophenyl)-1-{[1-(3-chloropyridin-2-yl)-1H-1,2,4-triazol-3-yl]methyl}-5-oxo-1,5-dihydro-4H-1,2,4-triazol-4-yl]-1,1,1-trifluoropropan-2-yl}-2-methoxyacetamide]
660 | 10 | 66.0 | CC(F)(F)C(=O)NC(Cn1c(-c2ccc(Cl)cc2)nn(Cc2ncn(-c3ncccc3Cl)n2)c1=O)C(F)(F)F (racemic) [Example 9]
45.5 | 1.2 | 37.9 | O=C(CC(F)(F)F)NC(Cn1c(-c2ccc(Cl)cc2)nn(Cc2ncn(-c3ncccc3Cl)n2)c1=O)C(F)(F)F (racemic) [Example 11, N-{3-[3-(4-Chlorophenyl)-1-{[1-(3-chloropyridin-2-yl)-1H-1,2,4-triazol-3-yl]methyl}-5-oxo-1,5-dihydro-4H-1,2,4-triazol-4-yl]-1,1,1-trifluoropropan-2-yl}-3,3,3-trifluoropropanamide]
260 | 6.95 | 37.4 | CCC(=O)NC(Cn1c(-c2ccc(Cl)cc2)nn(Cc2ncn(-c3ncccc3Cl)n2)c1=O)C(F)(F)F (racemic) [Example 13, N-{3-[3-(4-Chlorophenyl)-1-{[1-(3-chloropyridin-2-yl)-1H-1,2,4-triazol-3-yl]methyl}-5-oxo-1,5-dihydro-4H-1,2,4-triazol-4-yl]-1,1,1-trifluoropropan-2-yl}propanamide]
– | – | 9.0 | O=C(NC(Cn1c(-c2ccc(Cl)cc2)nn(Cc2ncn(-c3ncccc3Cl)n2)c1=O)C(F)(F)F)C1(C(F)(F)F)CC1 (stereo not shown) [Example 42, N-{3-[3-(4-Chlorophenyl)-1-{[1-(3-chloropyridin-2-yl)-1H-1,2,4-triazol-3-yl]methyl}-5-oxo-1,5-dihydro-4H-1,2,4-triazol-4-yl]-1,1,1-trifluoropropan-2-yl}-1-(trifluoromethyl)cyclopropane-carboxamide]

More lines, now with the values behind:

Compound | IC50 [1] [nM] | IC50 [2] [nM] | ratio IC50 hV2/hV1a [2]
O=C(NC(Cn1c(-c2ccc(Cl)cc2)nn(Cc2ncn(-c3ncccc3Cl)n2)c1=O)C(F)(F)F)C1COC1 (racemic) [Example 1, N-{3-[3-(4-Chlorophenyl)-1-{[1-(3-chloropyridin-2-yl)-1H-1,2,4-triazol-3-yl]methyl}-5-oxo-1,5-dihydro-4H-1,2,4-triazol-4-yl]-1,1,1-trifluoropropan-2-yl}oxetane-3-carboxamide] | 245 | 4.9 | 50.0
CC(=O)NC(Cn1c(-c2ccc(Cl)cc2)nn(Cc2ncn(-c3ncccc3Cl)n2)c1=O)C(F)(F)F (racemic) [Example 4, N-{3-[3-(4-Chlorophenyl)-1-{[1-(3-chloropyridin-2-yl)-1H-1,2,4-triazol-3-yl]methyl}-5-oxo-1,5-dihydro-4H-1,2,4-triazol-4-yl]-1,1,1-trifluoropropan-2-yl}acetamide] | 1850 | 55.5 | 33.3
O=C(CF)NC(Cn1c(-c2ccc(Cl)cc2)nn(Cc2ncn(-c3ncccc3Cl)n2)c1=O)C(F)(F)F (racemic) [Example 8] | 2200 | 42.5 | 51.8
O=C(NC(Cn1c(-c2ccc(Cl)cc2)nn(Cc2ncn(-c3ncccc3Cl)n2)c1=O)C(F)(F)F)C1CC1 (racemic) [Example 14, N-{3-[3-(4-Chlorophenyl)-1-{[1-(3-chloropyridin-2-yl)-1H-1,2,4-triazol-3-yl]methyl}-5-oxo-1,5-dihydro-4H-1,2,4-triazol-4-yl]-1,1,1-trifluoropropan-2-yl}cyclopropanecarboxamide] | 220 | 12.4 | 17.7
O=C(NC(Cn1c(-c2ccc(Cl)cc2)nn(Cc2ncn(-c3ncccc3Cl)n2)c1=O)C(F)(F)F)C1CC(F)(F)C1 (racemic) [Example 15, N-{3-[3-(4-Chlorophenyl)-1-{[1-(3-chloropyridin-2-yl)-1H-1,2,4-triazol-3-yl]methyl}-5-oxo-1,5-dihydro-4H-1,2,4-triazol-4-yl]-1,1,1-trifluoropropan-2-yl}-3,3-difluorocyclobutanecarboxamide] | 78.5 | 2.05 | 38.3
CC(=O)OC(C)(C)C(=O)NC(Cn1c(-c2ccc(Cl)cc2)nn(Cc2ncn(-c3ncccc3Cl)n2)c1=O)C(F)(F)F (racemic) [Example 16, 1-({3-[3-(4-Chlorophenyl)-1-{[1-(3-chloropyridin-2-yl)-1H-1,2,4-triazol-3-yl]methyl}-5-oxo-1,5-dihydro-4H-1,2,4-triazol-4-yl]-1,1,1-trifluoropropan-2-yl}amino)-2-methyl-1-oxopropan-2-yl acetate] | 140 | 5.05 | 27.7
CC(C)(O)C(=O)NC(Cn1c(-c2ccc(Cl)cc2)nn(Cc2ncn(-c3ncccc3Cl)n2)c1=O)C(F)(F)F (racemic) [Example 17, N-{3-[3-(4-Chlorophenyl)-1-{[1-(3-chloropyridin-2-yl)-1H-1,2,4-triazol-3-yl]methyl}-5-oxo-1,5-dihydro-4H-1,2,4-triazol-4-yl]-1,1,1-trifluoropropan-2-yl}-2-hydroxy-2-methylpropanamide] | 280 | 9.55 | 29.3
CS(=O)(=O)NCC(=O)NC(Cn1c(-c2ccc(Cl)cc2)nn(Cc2ncn(-c3ncccc3Cl)n2)c1=O)C(F)(F)F (racemic) [Example 19, N-{3-[3-(4-Chlorophenyl)-1-{[1-(3-chloropyridin-2-yl)-1H-1,2,4-triazol-3-yl]methyl}-5-oxo-1,5-dihydro-4H-1,2,4-triazol-4-yl]-1,1,1-trifluoropropan-2-yl}-N^2-(methylsulfonyl)glycinamide] | 102 | 2.2 | 46.1
O=C(CN1CCOC1=O)NC(Cn1c(-c2ccc(Cl)cc2)nn(Cc2ncn(-c3ncccc3Cl)n2)c1=O)C(F)(F)F (racemic) [Example 20, N-{3-[3-(4-Chlorophenyl)-1-{[1-(3-chloropyridin-2-yl)-1H-1,2,4-triazol-3-yl]methyl}-5-oxo-1,5-dihydro-4H-1,2,4-triazol-4-yl]-1,1,1-trifluoropropan-2-yl}-2-(2-oxo-1,3-oxazolidin-3-yl)acetamide] | 520 | 8.9 | 58.4
N#CC1(C(=O)NC(Cn2c(-c3ccc(Cl)cc3)nn(Cc3ncn(-c4ncccc4Cl)n3)c2=O)C(F)(F)F)CC1 (racemic) [Example 21] | 283 | 5.95 | 47.5
O=C(NC(Cn1c(-c2ccc(Cl)cc2)nn(Cc2ncn(-c3ncccc3Cl)n2)c1=O)C(F)(F)F)C1(O)CC1 (racemic) [Example 22, N-{3-[3-(4-Chlorophenyl)-1-{[1-(3-chloropyridin-2-yl)-1H-1,2,4-triazol-3-yl]methyl}-5-oxo-1,5-dihydro-4H-1,2,4-triazol-4-yl]-1,1,1-trifluoropropan-2-yl}-1-hydroxycyclopropanecarboxamide] | 150 | 4.05 | 37.0
